Results published in patent publication US10959966B2, “Compositions and methods for modulating HEXM1 expression” (CASE WESTERN RESERVE UNIVERSITY, priority 2014, dated 2021).

Experiments:
[1] = system: HEXIM1 expression in LNCaP prostate cancer cells; assay: HEXIM1 expression by western blot in LNCaP cells treated with HMBA analogs; format: cell-based; settings: LNCaP cells, 24 h, western blot normalized to β-actin; for HEXIM1 expression induction at lower concentration: analogs at 100 μM; for HEXIM1 expression compared to the vehicle treatment (cutoff 2.5 fold): analogs at 500 μM
Method: (§1) FIGS. 2(A-B) illustrate Western blots and a graph showing the effect of HMBA analogs on HEXIM1 expression. LNCaP cells were treated with vehicle, HMBA (5 mM) and its analogs at 500 μM for 24 h. Level of HEXIM1 (upper panel) and β-actin (lower panel) was analyzed by Western blot of cell extracts with HEXIM1 antibody and β-actin antibody respectively. The bands of HEXIM1 were quantified using ImageJ (NIH) and normalized to β-actin. The results are the representative of three independent experiments.
as §1, with “3(A-B)” for “2(A-B)”, “lower concentration” for “the effect”, “identified” for “its”, “100” for “500”
FIGS. 4(A-B) illustrate Western blots and a graph showing dose-dependent study of compound 4a1 and HMBA on HEXIM1 expression. Level of HEXIM1 (upper panel) and β-actin (lower panel) was analyzed by Western blot of cell extracts with HEXIM1 antibody and β-actin antibody respectively.
HMBA analogs described herein can be synthesized based on the HMBA scaffold and then selected for their ability to induce HEXIM1 expression in an in vitro cell assay. For example, the synthesized HMBA analogs can be administered to cells, such as LNCaP prostate cancer cells, and the level of HEXIM1 in such cells can be measured using western blot analyses. The level of HEXIM1 expression of cells that are treated with a potential HMBA analog can be compared to control cells treated without the HMBA analog or with HMBA. Control cells (untreated or treated with HMBA) can be assigned a relative HEXIM1 expression value. Induction or promotion of HEXIM1 expression is achieved when the HEXIM1 expression relative to the control is increased at least about 1%, 5%, 10%, 15%, 20%, 30%, 50%, 75%, 100%, 200%, or more.
The synthesis of the symmetrical and unsymmetrical derivatives is described in Scheme 1 and 2, respectively. For the symmetrical analogs, moieties A and C were kept identical. Besides the acetyl group of HMBA, methanesulfonyl group, propionyl group or butyryl group were introduced. In addition, a bulky benzoyl group was introduced. The active proton in the amide moiety was replaced with methyl group to generate a series of analogs with lower solubility. For the moiety B, various linkers such as 1,3-propylene, […] 1,4-cyclohexylene, 1,4-phenylene-bis(methylene), 1,4-cyclohexylene-bis(methylene) were tested for optimization. For the unsymmetrical analogs, the A and B moieties were kept the same as HMBA while the C moiety was modified with aryl or alkyl amide. A total of 32 compounds were synthesized, and these compounds were examined for their potency to induce HEXIM1 in LNCaP prostate cancer cells. HMBA (5 mM) was used as a positive control.
(§2) Therefore, these three compounds were screened at lower concentrations.

LNCaP cells = assay: Cell morphology after treatment, to exclude compounds causing cell toxicity; settings: 500 μM
Description: Cell morphology was examined after the treatment to exclude compounds that caused cell toxicity.

[2] = Precipitation of compounds in cell culture; format: physicochemical; settings: 500 μM
Method: as §2
Some compounds were further evaluated at a lower concentration of 100 μM (FIG. 3). […] The variation in potency could be due to the precipitation of the two compounds at 500 μM, which hampers cell penetration. […] Due to the unsymmetrical structural characteristic of 4a1, a dose-dependent study was performed and the results are presented in FIG. 4.

SMILES | HEXIM1 expression induction at lower concentration [1] | Cell morphology after the treatment (LNCaP cells) | HEXIM1 expression compared to the vehicle treatment (cutoff 2.5 fold) [1] | Precipitation during the treatment [2]
CCC(=O)NCCCCCCNC(=O)CC [Compound 2a4] | reduced activity |  |  | 
CCCC(=O)NCCCCCCNC(=O)CCC [Compound 2a5] | reduced activity |  |  | 
CC(=O)NCC1CCC(CNC(C)=O)CC1 (stereo not shown) [Compound 2c1] |  | cell morphology slightly changed | reached this cutoff | 
CC(=O)NC1CCC(NC(C)=O)CC1 (stereo not shown) [Compound 2d1] | not able to induce HEXIM1 expression |  |  | 
CS(=O)(=O)NCCCNS(C)(=O)=O [Compound 2f2] | not able to induce HEXIM1 expression |  |  | 
CN(CCCCCCN(C)S(C)(=O)=O)S(C)(=O)=O [Compound 3a2] | significant activity |  | did not reach the cutoff | precipitation
CC(=O)N(C)Cc1ccc(CN(C)C(C)=O)cc1 [Compound 3b1] | 3.8 fold |  |  | 
CN(Cc1ccc(CN(C)S(C)(=O)=O)cc1)S(C)(=O)=O [Compound 3b2] | 2 fold |  |  | 
CN(CC1CCC(CN(C)S(C)(=O)=O)CC1)S(C)(=O)=O (stereo not shown) [Compound 3c2] | not able to induce HEXIM1 expression |  |  | 
CC(=O)N(C)C1CCC(N(C)C(C)=O)CC1 (stereo not shown) [Compound 3d1] | not able to induce HEXIM1 expression |  |  | 
CN(C1CCC(N(C)S(C)(=O)=O)CC1)S(C)(=O)=O (stereo not shown) [Compound 3d2] | significant activity |  | did not reach the cutoff | precipitation
CN(CCCN(C)S(C)(=O)=O)S(C)(=O)=O [Compound 3f2] | not able to induce HEXIM1 expression |  | did not reach the cutoff | precipitation
COc1ccc(C(=O)NCCCCCCNC(C)=O)cc1 [Compound 4a3] |  |  | reached this cutoff | 
CC(=O)NCCCCCCNC(=O)c1ccc(-c2ccccc2)cc1 [Compound 4a4] | not able to induce HEXIM1 expression |  | did not reach the cutoff | 
